Converted amounts (≈) assume the structure as drawn.
Tests used:
[1] = test system: Asexual parasites of P. falciparum strain 3D7; test: In vitro drug activity on asexual parasites (SYBR Green assay); format: cell-based; conditions: Plasmodium falciparum; Table 1; P. falciparum 3D7 asexual stage, 72 h; read-out: Asexual EC50
Summary of the method: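 Growth was measured by SYBR Green I fluorescence (excitation 490 nm, emission 520 nm) after freeze-thaw lysis and 30 min staining at room temperature. Parasites (0.5% parasitemia, 2% hematocrit) had been incubated 72 h with compound, DMSO below 0.5%. Conditions were run in duplicate with no-drug and RBC-alone controls.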

[2] = Solubility pH 7.4; format: physicochemical; conditions: aqueous buffer, Table 1
[3] = Microsomal stability (rat); format: in vitro ADME; conditions: rat microsomes, Table 1, read-out: Microsomal Stability (rat) T1/2
[4] = PAMPA permeability; format: in vitro ADME; conditions: Table 1

EC50 [1] [nM]	solubility [2] [µg/mL]	half-life [3] [min]	Papp [4] [×10⁻⁶ cm/s]	SMILES
27.2	< 1	> 30	433	COc1cc(-c2ccc3ncc4c(c3c2)n(-c2cc(C#N)ccc2C)c(=N)n4C)ccc1Cl [Compound 31, 3-(8-(4-chloro-3-methoxyphenyl)-2-imino-3-methyl-2,3-dihydro-1H-imidazo[4,5-c]quinolin-1-yl)-4-methylbenzonitrile]
420	> 42	> 30	678	COc1cccc(-c2ccc3ncc4c(c3c2)n(-c2cc(C#N)ccc2C)c(=N)n4C)c1 [Compound 32, 3-(2-imino-8-(3-methoxyphenyl)-3-methyl-2,3-dihydro-H-imidazo[4,5-c]quinolin-1-yl)-4-methylbenzonitrile]
297	14.5 (≈ 34.2 µM)	> 30	1820	Cc1ccc(C#N)cc1-n1c(=N)n(C)c2cnc3ccc(-c4cccc(Cl)c4)cc3c21 [Compound 33, 3-(8-(3-chlorophenyl)-2-imino-3-methyl-2,3-dihydro-1H-imidazo[4,5-c]quinolin-1-yl)-4-methylbenzonitrile]
47.3	> 40	> 30	852	Cc1ccc(C#N)cc1-n1c(=N)n(C)c2cnc3ccc(-c4cccc(F)c4)cc3c21 [Compound 34, 3-(8-(3-fluorophenyl)-2-imino-3-methyl-2,3-dihydro-1H-imidazo[4,5-c]quinolin-1-yl)-4-methylbenzonitrile]
34	> 39	> 30	716	Cc1ccc(C#N)cc1-n1c(=N)n(C)c2cnc3ccc(-c4ccccc4)cc3c21 [Compound 35, 3-(2-imino-3-methyl-8-phenyl-2,3-dihydro-1H-imidazo[4,5-c]quinolin-1-yl)-4-methylbenzonitrile]
158	> 40	27	1150	Cc1cccc(-c2ccc3ncc4c(c3c2)n(-c2cc(C#N)ccc2C)c(=N)n4C)c1 [Compound 36, 3-(2-imino-3-methyl-8-(m-tolyl)-2,3-dihydro-1H-imidazo[4,5-c]quinolin-1-yl)-4-methylbenzonitrile]
46.1	> 40	> 30	10.3	Cc1ccc(C#N)cc1-n1c(=N)n(C)c2cnc3ccc(-c4cccc(O)c4)cc3c21 [Compound 37, 3-(8-(3-hydroxyphenyl)-2-imino-3-methyl-2,3-dihydro-1H-imidazo[4,5-c]quinolin-1-yl)-4-methylbenzonitrile]
83	> 40	> 30	435	Cc1ccc(C#N)cc1-n1c(=N)n(C)c2cnc3ccc(-c4cccc(N)c4)cc3c21 [Compound 38, 3-(8-(3-aminophenyl)-2-imino-3-methyl-2,3-dihydro-1H-imidazo[4,5-c]quinolin-1-yl)-4-methylbenzonitrile]
54.5	> 42	> 30	147	Cc1ccc(C#N)cc1-n1c(=N)n(C)c2cnc3ccc(-c4ccc(F)c(O)c4)cc3c21 [Compound 39, 3-(8-(4-fluoro-3-hydroxyphenyl)-2-imino-3-methyl-2,3-dihydro-1H-imidazo[4,5-c]quinolin-1-yl)-4-methylbenzonitrile]
46.2	> 44	> 30	988	COc1ccc(-c2ccc3ncc4c(c3c2)n(-c2cc(C#N)ccc2C)c(=N)n4C)cc1OC [Compound 41, 3-(8-(3,4-dimethoxyphenyl)-2-imino-3-methyl-2,3-dihydro-1H-imidazo[4,5-c]quinolin-1-yl)-4-methylbenzonitrile]
574	< 1	> 30	1650	Cc1ccc(C#N)cc1-n1c(=N)n(C)c2cnc3ccc(-c4ccc(Cl)c(Cl)c4)cc3c21 [Compound 42, 3-(8-(3,4-dichlorophenyl)-2-imino-3-methyl-2,3-dihydro-1H-imidazo[4,5-c]quinolin-1-yl)-4-methylbenzonitrile]
118	8.3 (≈ 19.5 µM)	> 30	837	Cc1ccc(C#N)cc1-n1c(=N)n(C)c2cnc3ccc(-c4ccc(F)c(F)c4)cc3c21 [Compound 43, 3-(8-(3,4-difluorophenyl)-2-imino-3-methyl-2,3-dihydro-1H-imidazo[4,5-c]quinolin-1-yl)-4-methylbenzonitrile]
119	> 42	> 30	1560	Cc1ccc(C#N)cc1-n1c(=N)n(C)c2cnc3ccc(-c4ccc(Cl)cn4)cc3c21 [Compound 44, 3-(8-(5-chloropyridin-2-yl)-2-imino-3-methyl-2,3-dihydro-1H-imidazo[4,5-c]quinolin-1-yl)-4-methylbenzonitrile]
125	< 1	> 30	30.5	Cn1c(=N)n(-c2cnc(N3CCNCC3)c(C#N)c2)c2c3cc(-c4ccc(Cl)cc4)ccc3ncc21 [Compound 48, 5-(8-(4-chlorophenyl)-2-imino-3-methyl-2,3-dihydro-1H-imidazo[4,5-c]quinolin-1-yl)-2-(piperazin-1-yl)nicotinonitrile]
58.2	1 (≈ 2.02 µM)	> 30	4.9	Cn1c(=N)n(-c2ccc(N3CCNCC3)c(C#N)c2)c2c3cc(-c4ccc(Cl)cc4)ccc3ncc21 [Compound 49, 5-(8-(4-chlorophenyl)-2-imino-3-methyl-2,3-dihydro-1H-imidazo[4,5-c]quinolin-1-yl)-2-(piperazin-1-yl)benzonitrile]
186	< 1	> 30	81.1	Cn1c(=N)n(-c2ccc(N3CCOCC3)c(C#N)c2)c2c3cc(-c4ccc(Cl)cc4)ccc3ncc21 [Compound 51, 5-(8-(4-chlorophenyl)-2-imino-3-methyl-2,3-dihydro-1H-imidazo[4,5-c]quinolin-1-yl)-2-morpholinobenzonitrile]
444	> 42	> 30	1430	Cc1ccc(C#N)cc1-n1c(=N)n(C)c2cnc3ccc(-c4ncc(Cl)cn4)cc3c21 [Compound 52, 3-(8-(5-chloropyrimidin-2-yl)-2-imino-3-methyl-2,3-dihydro-1H-imidazo[4,5-c]quinolin-1-yl)-4-methylbenzonitrile]
120	12.2 (≈ 27.7 µM)	> 30	850	COc1ccc(C#N)cc1-n1c(=N)n(C)c2cnc3ccc(-c4ccc(Cl)cc4)cc3c21 [Compound 53, 3-(8-(4-chlorophenyl)-2-imino-3-methyl-2,3-dihydro-1H-imidazo[4,5-c]quinolin-1-yl)-4-methoxybenzonitrile]
95.1	1.3 (≈ 2.89 µM)	> 30	466	Cc1ccc(C#N)cc1-n1/c(=N/C(N)=O)n(C)c2cnc3ccc(-c4ccc(F)cc4)cc3c21 [Compound 55, (E)-1-(1-(5-cyano-2-methylphenyl)-8-(4-fluorophenyl)-3-methyl-1,3-dihydro-2H-imidazo[4,5-c]quinolin-2-ylidene)urea]
1460	> 44	> 30	1.7	Cc1ccc(C#N)cc1-n1/c(=N/C(=N)N)n(C)c2cnc3ccc(-c4ccc(F)cc4)cc3c21 [Compound 56, (E)-1-(1-(5-cyano-2-methylphenyl)-8-(4-fluorophenyl)-3-methyl-1,3-dihydro-2H-imidazo[4,5-c]quinolin-2-ylidene)guanidine]
2670	> 44	> 30	816	Cn1c(=N)n(C2CC(N3CCOCC3)C2)c2c3cc(-c4ccc(Cl)cc4)ccc3ncc21 (centres unmarked) [Compound 58, 8-(4-chlorophenyl)-3-methyl-1-(3-morpholinocyclobutyl)-1,3-dihydro-2H-imidazo[4,5-c]quinolin-2-imine]
481	> 39	> 30	2	Cc1ccc(C#N)cc1-n1c(=N)n(C)c2cnc3ccc(C4=CCN(C)C4)cc3c21 [Compound 60, 3-(2-imino-3-methyl-8-(1-methyl-2,5-dihydro-1H-pyrrol-3-yl)-2,3-dihydro-1H-imidazo[4,5-c]quinolin-1-yl)-4-methylbenzonitrile]
580	6.1 (≈ 13 µM)	> 30	10.2	Cn1c(=N)n(-c2ccc(C(=O)NC3CC3)cc2)c2c3cc(-c4ccc(Cl)cc4)ccc3ncc21 [Compound 65, 4-(8-(4-chlorophenyl)-2-imino-3-methyl-2,3-dihydro-1H-imidazo[4,5-c]quinolin-1-yl)-N-cyclopropylbenzamide]
2990	> 42	> 30	48.1	CNCc1cccc(-n2c(=N)n(C)c3cnc4ccc(-c5ccc(Cl)cc5)cc4c32)c1 [Compound 67, 1-(3-(8-(4-chlorophenyl)-2-imino-3-methy-2,3-dihydro-H-imidazo[4,5-c]quinolin-1-yl)phenyl)-N-methylmethanamine]
1450	> 41	> 30	142	Cn1c(=N)n(-c2ccccc2C#N)c2c3cc(-c4ccc(Cl)cc4)ccc3ncc21 [Compound 68, 2-(8-(4-chlorophenyl)-2-imino-3-methyl-2,3-dihydro-1H-imidazo[4,5-c]quinolin-1-yl)benzonitrile]
802	> 46	> 30	28.3	Cn1c(=N)n(-c2cccc(N3CCNCC3)c2)c2c3cc(-c4ccc(Cl)cc4)ccc3ncc21 [Compound 76, 8-(4-chlorophenyl)-3-methyl-1-(3-(piperazin-1-yl)phenyl)-1,3-dihydro-2H-imidazo[4,5-c]quinolin-2-imine]

Source: patent US20210188843A1, “QUINOLINE COMPOUNDS AND THEIR PREPARATION AND USE AS ANTIMALARIAL AGENTS” (The United States of America,as represented by the …, priority 2018, published 2021)
